Data reported in ChEMBL document CHEMBL1201861, “Genomics of Drug Sensitity in Cancer screening data, Wellcome Trust Sanger Institute”.

What was measured:
COLO-792 = experiment: cells; format: functional, cell-based; details: Homo sapiens
Description: SANGER: Inhibition of human COLO-792 cell growth in a cell viability assay.

COR-L105 = experiment: cells; format: functional, cell-based; details: Homo sapiens
Description: SANGER: Inhibition of human COR-L105 cell growth in a cell viability assay.

ChaGo-K-1 = experiment: cells; format: functional, cell-based; details: Homo sapiens;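 further: growth inhibition of ChaGo-K-1 cells, read out with a cell viability assay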
Description: SANGER: Inhibition of human ChaGo-K-1 cell growth in a cell viability assay.

D-392MG = experiment: cells; format: functional, cell-based; details: Homo sapiens
DBTRG-05MG = experiment: cells; format: functional, cell-based; details: Homo sapiens;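 further: cell viability assay measuring growth inhibition of human DBTRG-05MG cells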
Description: SANGER: Inhibition of human DBTRG-05MG cell growth in a cell viability assay.

Detroit 562 = experiment: cells; format: functional, cell-based; details: Homo sapiens;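 further: growth inhibition of human Detroit 562 cells, read out by a cell viability assay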
Description: SANGER: Inhibition of human Detroit562 cell growth in a cell viability assay.

EGI-1 = experiment: cells; format: functional, cell-based; details: Homo sapiens;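 further: cell viability readout used to gauge growth inhibition of EGI-1 cells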
Description: SANGER: Inhibition of human EGI-1 cell growth in a cell viability assay.

ESS-1 = experiment: cells; format: functional, cell-based; details: Homo sapiens;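 further: growth inhibition of human ESS-1 cells, read out by a cell viability assay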
Description: SANGER: Inhibition of human ESS-1 cell growth in a cell viability assay.

FaDu = experiment: cells; format: functional, cell-based; details: Homo sapiens;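 further: cell viability readout of growth inhibition in FaDu cells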
Description: SANGER: Inhibition of human FADU cell growth in a cell viability assay.

G-402 = experiment: cells; format: functional, cell-based; details: Homo sapiens
Description: SANGER: Inhibition of human G-402 cell growth in a cell viability assay.

GAMG = experiment: cells; format: functional, cell-based; details: Homo sapiens;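 further: cell growth inhibition measured by a viability assay in the GAMG human cell line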
Description: SANGER: Inhibition of human GAMG cell growth in a cell viability assay.

HCC1954 = experiment: cells; format: functional, cell-based; details: Homo sapiens;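 further: growth inhibition of human HCC1954 cells, read out with a cell viability assay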
Description: SANGER: Inhibition of human HCC1954 cell growth in a cell viability assay.

HEC-1 = experiment: cells; format: functional, cell-based; details: Homo sapiens;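 further: growth inhibition of the cell line, read out with a cell viability assay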
Description: SANGER: Inhibition of human HEC-1 cell growth in a cell viability assay.

HOS = experiment: cells; format: functional, cell-based; details: Homo sapiens;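 further: growth inhibition of human HOS cells, read out with a cell viability assay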
Description: SANGER: Inhibition of human HOS cell growth in a cell viability assay.

HuP-T4 = experiment: cells; format: functional, cell-based; details: Homo sapiens;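 further: cell viability assay measuring how much HuP-T4 cell growth is inhibited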
Description: SANGER: Inhibition of human HuP-T4 cell growth in a cell viability assay.

JEG-3 = experiment: cells; format: functional, cell-based; details: Homo sapiens;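 further: growth inhibition of human JEG-3 cells, read out with a cell viability assay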
Description: SANGER: Inhibition of human JEG-3 cell growth in a cell viability assay.

KYSE-450 = experiment: cells; format: functional, cell-based; details: Homo sapiens;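 further: cell growth inhibition measured by a viability assay in human KYSE-450 cells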
Description: SANGER: Inhibition of human KYSE-450 cell growth in a cell viability assay.

M14 = experiment: cells; format: functional, cell-based; details: Homo sapiens;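 further: growth inhibition of M14 cells, read out with a cell viability assay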
Description: SANGER: Inhibition of human M14 cell growth in a cell viability assay.

MDA-MB-231 = experiment: cells; format: functional, cell-based; details: Homo sapiens
Description: SANGER: Inhibition of human MDA-MB-231 cell growth in a cell viability assay.

MDA-MB-415 = experiment: cells; format: functional, cell-based; details: Homo sapiens
MHH-ES-1 = experiment: cells; format: functional, cell-based; details: Homo sapiens
Description: SANGER: Inhibition of human MHH-ES-1 cell growth in a cell viability assay.

MKN-45 = experiment: cells; format: functional, cell-based; details: Homo sapiens;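 further: growth inhibition of human MKN-45 cells, measured with a cell viability assay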
Description: SANGER: Inhibition of human MKN45 cell growth in a cell viability assay.

MOLT-13 = experiment: cells; format: functional, cell-based; details: Homo sapiens;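 further: IC50 for suppression of MOLT-13 cell growth, read out with a cell viability assay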
Description: SANGER: Inhibition of human MOLT-13 cell growth in a cell viability assay.

NCI-H1437 = experiment: cells; format: functional, cell-based; details: Homo sapiens;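 further: growth inhibition of human NCI-H1437 cells, read out by a cell viability assay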
Description: SANGER: Inhibition of human NCI-H1437 cell growth in a cell viability assay.

NCI-H1703 = experiment: cells; format: functional, cell-based; details: Homo sapiens;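 further: growth inhibition of NCI-H1703 cells, read out via a cell viability assay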
Description: SANGER: Inhibition of human NCI-H1703 cell growth in a cell viability assay.

NCI-H2030 = experiment: cells; format: functional, cell-based; details: Homo sapiens;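 further: growth inhibition of human NCI-H2030 cells, read out by a cell viability assay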
Description: SANGER: Inhibition of human NCI-H2030 cell growth in a cell viability assay.

NCI-H28 = experiment: cells; format: functional, cell-based; details: Homo sapiens;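 further: growth inhibition of human NCI-H28 cells, read out as cell viability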
Description: SANGER: Inhibition of human NCI-H28 cell growth in a cell viability assay.

NCI-H727 = experiment: cells; format: functional, cell-based; details: Homo sapiens;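 further: growth inhibition of human NCI-H727 cells, read out with a cell viability assay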
Description: SANGER: Inhibition of human NCI-H727 cell growth in a cell viability assay.

NY = experiment: cells; format: functional, cell-based; details: Homo sapiens
Description: SANGER: Inhibition of human NY cell growth in a cell viability assay.

Panc1005 = experiment: cells; format: functional, cell-based; details: Homo sapiens;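 further: growth inhibition of human PANC-10-05 cells, measured by a cell viability assay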
Description: SANGER: Inhibition of human PANC-10-05 cell growth in a cell viability assay.

RPMI-2650 = experiment: cells; format: functional, cell-based; details: Homo sapiens
Description: SANGER: Inhibition of human RPMI-2650 cell growth in a cell viability assay.

SK-N-AS = experiment: cells; format: functional, cell-based; details: Homo sapiens;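 further: growth inhibition of human SK-N-AS cells, measured with a cell viability assay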
Description: SANGER: Inhibition of human SK-N-AS cell growth in a cell viability assay.

SNU-423 = experiment: cells; format: functional, cell-based; details: Homo sapiens
Description: SANGER: Inhibition of human SNU-423 cell growth in a cell viability assay.

SW1417 = experiment: cells; format: functional, cell-based; details: Homo sapiens;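 further: growth inhibition of human SW1417 cells, read out with a cell viability assay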
Description: SANGER: Inhibition of human SW1417 cell growth in a cell viability assay.

SW626 = experiment: cells; format: functional, cell-based; details: Homo sapiens;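 further: growth inhibition of SW626 cells, measured with a cell viability assay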
Description: SANGER: Inhibition of human SW626 cell growth in a cell viability assay.

SAOS-2 = experiment: cells; format: functional, cell-based; details: Homo sapiens;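 further: growth inhibition of human Saos-2 cells determined by a cell viability assay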
Description: SANGER: Inhibition of human Saos-2 cell growth in a cell viability assay.

SiHa = experiment: cells; format: functional, cell-based; details: Homo sapiens;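 further: Viability-based readout of growth inhibition in SiHa cells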
Description: SANGER: Inhibition of human SiHa cell growth in a cell viability assay.

T98G = experiment: cells; format: functional, cell-based; details: Homo sapiens;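 further: growth inhibition of T98G cells, read out by a cell viability assay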
Description: SANGER: Inhibition of human T98G cell growth in a cell viability assay.

8305C = experiment: cells; format: functional, cell-based; details: Homo sapiens
Description: SANGER: Inhibition of human 8305C cell growth in a cell viability assay.

A2780 = experiment: cells; format: functional, cell-based; details: Homo sapiens;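 further: growth inhibition of A2780 cells, read out with a cell viability assay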
Description: SANGER: Inhibition of human A2780 cell growth in a cell viability assay.

ACHN = experiment: cells; format: functional, cell-based; details: Homo sapiens;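 further: cell viability read-out used to gauge how strongly growth of human ACHN cells is suppressed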
Description: SANGER: Inhibition of human ACHN cell growth in a cell viability assay.

BFTC-909 = experiment: cells; format: functional, cell-based; details: Homo sapiens
Description: SANGER: Inhibition of human BFTC-909 cell growth in a cell viability assay.

C3A = experiment: cells; format: functional, cell-based; details: Homo sapiens;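 further: growth inhibition of C3A human cells, quantified with a cell viability readout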
Description: SANGER: Inhibition of human C3A cell growth in a cell viability assay.

CAL-12T = experiment: cells; format: functional, cell-based; details: Homo sapiens;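 further: growth inhibition of human CAL-12T cells, read out with a cell viability assay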
Description: SANGER: Inhibition of human CAL-12T cell growth in a cell viability assay.

U-118-MG = experiment: cells; format: functional, cell-based; details: Homo sapiens
Description: SANGER: Inhibition of human U-118-MG cell growth in a cell viability assay.

U2OS = experiment: cells; format: functional, cell-based, U-2-OS; details: Homo sapiens;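 further: growth inhibition of human U-2-OS cells, determined with a cell viability assay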
Description: SANGER: Inhibition of human U-2-OS cell growth in a cell viability assay.

CAMA-1 = experiment: cells; format: functional, cell-based; details: Homo sapiens;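 further: growth inhibition of CAMA-1 cells, read out with a cell viability assay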
Description: SANGER: Inhibition of human CAMA-1 cell growth in a cell viability assay.

CHL-1 = experiment: cells; format: functional, cell-based; details: Homo sapiens;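 further: cell growth inhibition, read out with a cell viability assay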
Description: SANGER: Inhibition of human CHL-1 cell growth in a cell viability assay.

COLO-678 = experiment: cells; format: functional, cell-based; details: Homo sapiens
Description: SANGER: Inhibition of human COLO-678 cell growth in a cell viability assay.

COLO-679 = experiment: cells; format: functional, cell-based; details: Homo sapiens
Description: SANGER: Inhibition of human COLO-679 cell growth in a cell viability assay.

LP-1 = experiment: cells; format: functional, cell-based, Homo sapiens; details: Homo sapiens, LP-1;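 further: growth inhibition of human LP-1 cells, with the read-out taken from a cell viability assay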
Description: SANGER: Inhibition of human LP-1 cell growth in a cell viability assay.

NCI-H1417 = experiment: cells; format: functional, cell-based, Homo sapiens; details: Homo sapiens, NCI-H1417;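 further: human NCI-H1417 cells, growth inhibition determined with a cell viability readout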
Description: SANGER: Inhibition of human NCI-H1417 cell growth in a cell viability assay.

NCI-H1963 = experiment: cells; format: functional, cell-based, Homo sapiens; details: Homo sapiens, NCI-H1963;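 further: cell growth inhibition of the human line, determined with a cell viability assay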
Description: SANGER: Inhibition of human NCI-H1963 cell growth in a cell viability assay.

NCI-H2081 = experiment: cells; format: functional, cell-based, Homo sapiens; details: Homo sapiens, NCI-H2081;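 further: growth inhibition of human NCI-H2081 cells, read out with a cell viability assay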
Description: SANGER: Inhibition of human NCI-H2081 cell growth in a cell viability assay.

NCI-H2171 = experiment: cells; format: functional, cell-based, Homo sapiens; details: Homo sapiens, NCI-H2171;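 further: growth inhibition of human NCI-H2171 cells, read out by a cell viability assay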
Description: SANGER: Inhibition of human NCI-H2171 cell growth in a cell viability assay.

NCI-H322M = experiment: cells; format: functional, cell-based, Homo sapiens; details: Homo sapiens, NCI-H322M;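 further: cell viability assay measuring inhibition of growth of human NCI-H322M cells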
Description: SANGER: Inhibition of human NCI-H322M cell growth in a cell viability assay.

RPMI-6666 = experiment: cells; format: functional, cell-based, Homo sapiens; details: Homo sapiens, RPMI-6666
Description: SANGER: Inhibition of human RPMI-6666 cell growth in a cell viability assay.

SIG-M5 = experiment: cells; format: functional, cell-based, Homo sapiens; details: Homo sapiens, SIG-M5;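 further: cell viability assay read-out, measuring how strongly growth of cultured human SIG-M5 cells is inhibited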
Description: SANGER: Inhibition of human SIG-M5 cell growth in a cell viability assay.

ST486 = experiment: SANGER: Inhibition of human ST486 cell growth in a cell viability assay.; format: functional, cell-based; details: Homo sapiens, ST486
SU-DHL-1 = experiment: SANGER: Inhibition of human SU-DHL-1 cell growth in a cell viability assay.; format: functional, cell-based; details: Homo sapiens, SU-DHL-1
YT = experiment: cells; format: functional, cell-based, Homo sapiens; details: Homo sapiens, YT
Description: SANGER: Inhibition of human YT cell growth in a cell viability assay.

With `CC1=C(/C=C/C(C)=C/C=C/C(C)=C/C(=O)O)C(C)(C)CCC1` [TRETINOIN] the IC50 (COLO-792) was over 10 µM, the IC50 (COR-L105) was over 10 µM and the IC50 (ChaGo-K-1) was over 10 µM. For the same molecule, the IC50 (D-392MG) was over 10 µM, the IC50 (DBTRG-05MG) was over 10 µM and the IC50 (Detroit 562) was over 10 µM. It also gave an IC50 (EGI-1) of over 10 µM, an IC50 (ESS-1) of over 10 µM and an IC50 (FaDu) of over 10 µM. For the same molecule, the IC50 (G-402) was over 10 µM, the IC50 (GAMG) was over 10 µM and the IC50 (HCC1954) was over 10 µM. It also gave an IC50 (HEC-1) of over 10 µM, an IC50 (HOS) of over 10 µM and an IC50 (HuP-T4) of over 10 µM. The IC50 (JEG-3) was over 10 µM, the IC50 (KYSE-450) was over 10 µM and the IC50 (M14) was over 10 µM. The IC50 (MDA-MB-231) was over 10 µM, the IC50 (MDA-MB-415) was over 10 µM and the IC50 (MHH-ES-1) was over 10 µM. For the same molecule, the IC50 (MKN-45) was over 10 µM, the IC50 (MOLT-13) was 1.15 µM and the IC50 (NCI-H1437) was over 10 µM. For the same molecule, the IC50 (NCI-H1703) was over 10 µM, the IC50 (NCI-H2030) was over 10 µM and the IC50 (NCI-H28) was over 10 µM. The IC50 (NCI-H727) was over 10 µM, the IC50 (NY) was over 10 µM and the IC50 (Panc1005) was over 10 µM. The IC50 (RPMI-2650) was over 10 µM, the IC50 (SK-N-AS) was over 10 µM and the IC50 (SNU-423) was over 10 µM. It also gave an IC50 (SW1417) of over 10 µM, an IC50 (SW626) of over 10 µM and an IC50 (SAOS-2) of over 10 µM. It also gave an IC50 (SiHa) of over 10 µM, an IC50 (T98G) of over 10 µM and an IC50 (8305C) of over 10 µM. The IC50 (A2780) was over 10 µM, the IC50 (ACHN) was over 10 µM and the IC50 (BFTC-909) was over 10 µM. For the same molecule, the IC50 (C3A) was over 10 µM, the IC50 (CAL-12T) was over 10 µM and the IC50 (U-118-MG) was over 10 µM. For the same molecule, the IC50 (U2OS) was over 10 µM, the IC50 (CAMA-1) was over 10 µM and the IC50 (CHL-1) was over 10 µM. It also gave an IC50 (COLO-678) of over 10 µM and an IC50 (COLO-679) of over 10 µM.
Molecule `COc1ccc(-c2cc3nccn3c(Nc3ncccc3C(N)=O)n2)cc1OC` has an IC50 (COLO-792) of over 8 µM, an IC50 (COR-L105) of 1.14 µM and an IC50 (ChaGo-K-1) of over 8 µM. It also gave an IC50 (D-392MG) of over 8 µM, an IC50 (DBTRG-05MG) of over 8 µM and an IC50 (Detroit 562) of 3.88 µM. It also gave an IC50 (EGI-1) of over 8 µM, an IC50 (ESS-1) of 4.08 µM and an IC50 (FaDu) of over 8 µM. For the same molecule, the IC50 (G-402) was 6.9 µM, the IC50 (GAMG) was over 8 µM and the IC50 (HCC1954) was over 8 µM. It also gave an IC50 (HEC-1) of over 8 µM, an IC50 (HOS) of 3.32 µM and an IC50 (HuP-T4) of 7.99 µM. The IC50 (JEG-3) was over 8 µM, the IC50 (KYSE-450) was 2.32 µM and the IC50 (LP-1) was 4.02 µM. For the same molecule, the IC50 (M14) was over 8 µM, the IC50 (MDA-MB-231) was over 8 µM and the IC50 (MDA-MB-415) was over 8 µM. For the same molecule, the IC50 (MHH-ES-1) was over 8 µM, the IC50 (MKN-45) was over 8 µM and the IC50 (NCI-H1417) was over 8 µM. It also gave an IC50 (NCI-H1437) of 1.8 µM, an IC50 (NCI-H1703) of over 8 µM and an IC50 (NCI-H1963) of over 8 µM. For the same molecule, the IC50 (NCI-H2030) was 6.25 µM, the IC50 (NCI-H2081) was over 8 µM and the IC50 (NCI-H2171) was over 8 µM. It also gave an IC50 (NCI-H28) of over 8 µM, an IC50 (NCI-H322M) of over 8 µM and an IC50 (NCI-H727) of 6.15 µM. The IC50 (NY) was over 8 µM, the IC50 (Panc1005) was 4.15 µM and the IC50 (RPMI-2650) was 0.696 µM. The IC50 (RPMI-6666) was 1.44 µM, the IC50 (SIG-M5) was 0.848 µM and the IC50 (SK-N-AS) was over 8 µM. For the same molecule, the IC50 (SNU-423) was over 8 µM, the IC50 (ST486) was 0.576 µM and the IC50 (SU-DHL-1) was over 8 µM. The IC50 (SW1417) was over 8 µM, the IC50 (SW626) was over 8 µM and the IC50 (SAOS-2) was over 8 µM. The IC50 (SiHa) was over 8 µM, the IC50 (T98G) was over 8 µM and the IC50 (8305C) was 2.42 µM. The IC50 (A2780) was 1.53 µM, the IC50 (ACHN) was 1.38 µM and the IC50 (BFTC-909) was over 8 µM. For the same molecule, the IC50 (C3A) was 6.53 µM, the IC50 (CAL-12T) was 0.496 µM and the IC50 (U-118-MG) was 6.78 µM. It also gave an IC50 (U2OS) of over 8 µM, an IC50 (YT) of 2.34 µM and an IC50 (CAMA-1) of over 8 µM. The IC50 (CHL-1) was 4.05 µM, the IC50 (COLO-678) was over 8 µM and the IC50 (COLO-679) was over 8 µM.
In the case of `NC(=O)c1ccc(N(C(N)=O)c2c(F)cccc2F)nc1-c1ccc(F)cc1F` [VX-702], the IC50 (COLO-792) is reported as over 2 µM, the IC50 (COR-L105) is reported as over 2 µM and the IC50 (ChaGo-K-1) is reported as over 2 µM. The IC50 (D-392MG) was over 2 µM, the IC50 (DBTRG-05MG) was over 2 µM and the IC50 (Detroit 562) was over 2 µM. It also gave an IC50 (EGI-1) of over 2 µM, an IC50 (ESS-1) of over 2 µM and an IC50 (FaDu) of over 2 µM. It also gave an IC50 (G-402) of over 2 µM, an IC50 (GAMG) of over 2 µM and an IC50 (HCC1954) of over 2 µM. For the same molecule, the IC50 (HEC-1) was over 2 µM, the IC50 (HOS) was over 2 µM and the IC50 (HuP-T4) was over 2 µM. It also gave an IC50 (JEG-3) of over 2 µM, an IC50 (KYSE-450) of over 2 µM and an IC50 (M14) of over 2 µM. It also gave an IC50 (MDA-MB-231) of over 2 µM, an IC50 (MDA-MB-415) of over 2 µM and an IC50 (MHH-ES-1) of over 2 µM. The IC50 (MKN-45) was over 2 µM, the IC50 (MOLT-13) was 0.16 µM and the IC50 (NCI-H1437) was over 2 µM. It also gave an IC50 (NCI-H1703) of over 2 µM, an IC50 (NCI-H2030) of over 2 µM and an IC50 (NCI-H28) of over 2 µM. For the same molecule, the IC50 (NCI-H727) was over 2 µM, the IC50 (NY) was over 2 µM and the IC50 (Panc1005) was over 2 µM. For the same molecule, the IC50 (RPMI-2650) was over 2 µM, the IC50 (SK-N-AS) was over 2 µM and the IC50 (SNU-423) was over 2 µM. For the same molecule, the IC50 (SW1417) was over 2 µM, the IC50 (SW626) was over 2 µM and the IC50 (SAOS-2) was over 2 µM. For the same molecule, the IC50 (SiHa) was over 2 µM, the IC50 (T98G) was over 2 µM and the IC50 (8305C) was over 2 µM. It also gave an IC50 (A2780) of over 2 µM, an IC50 (ACHN) of over 2 µM and an IC50 (BFTC-909) of over 2 µM. It also gave an IC50 (C3A) of over 2 µM, an IC50 (CAL-12T) of over 2 µM and an IC50 (U-118-MG) of over 2 µM. For the same molecule, the IC50 (U2OS) was over 2 µM, the IC50 (CAMA-1) was over 2 µM and the IC50 (CHL-1) was over 2 µM. It also gave an IC50 (COLO-678) of over 2 µM and an IC50 (COLO-679) of over 2 µM.
